Columns and labels:
[1] = system: adenosine uptake into HeLa cells; assay: [3H]Adenosine uptake assay; type: cell-based; conditions: Homo sapiens; accumulation of [3H]adenosine into HeLa cells; concentration range 10 μM to 0.032 nM; read-out: ADU inhibition IC50
Protocol: Compounds are also screened in an adenosine uptake functional cellular assay using the protocol described below:
Adenosine uptake activity was determined by monitoring the accumulation of tritiated adenosine into HeLa cells (ATCC catalog #CCL-2) using a PMT-based radiometric detection instrument. In this assay, the potency (IC50) of each compound was determined from a ten point (1:3 serial dilution; final compound concentration range in assay from 10 μM to 0.032 nM) titration curve using the following outlined procedure. To each well of a 96-well CytoStar-T scintillating microplate (Perkin Elmer Catalog #RPNQ0163), 25 000 HeLa cells in 100 μL of growth medium comprising: Minimum Essential Media (Life Technologies Catalog #11095-080)+10% (v/v) foetal bovine serum (FBS; Sigma Aldrich Catalog #F2442) was added. These cells were incubated overnight at 37° C. in a humidified atmosphere with 5% (v/v) CO2. After this time the growth medium was removed and replaced with 40 μL assay medium comprising: Hanks balanced salts solution (HBSS; Thermo Fisher Catalog # SH30268.01)+5% (v/v) FBS. Compound stock solutions in DMSO were diluted in assay medium to 2.5× final compound concentration maintaining a constant DMSO concentration of 0.25% (v/v). 40 μL of compound in assay medium was dispensed into individual wells of the Cytostar-T plates and the plates were incubated for 30 minutes under ambient laboratory conditions. Following this incubation, 20 μL of 500 nM [^3H] adenosine (American Radiolabeled Chemicals Inc. Catalog #ART0287) in assay medium was added and incubated for a further 60 minutes under ambient laboratory conditions. The amount of radiolabel accumulation was then determined using a Perkin Elmer Topcount NXT microplate reader. In brief, HeLa cells adhere to the bottom of the Cytostar-T plate, uptake of [^3H]adenosine into these cells brings the radiolabel into sufficient proximity to excite the scintillant in the base of the plates. These events are captured by single PMT, time-resolved coincidence counting. IC50 values were determined by 4 parameter robust fit of counts per second values vs. (Log10)) compound concentrations.

[2] = target: T1, BTK enzyme (recombinant full-length BTK, hBTK) (Homo sapiens, UniProt Q06187); assay: Btk enzyme activity assay (LANCE TR-FRET); type: biochemical; conditions: 50 pM hBTK, 25 μM ATP, 60 minute compound and enzyme incubation, concentration range 1 μM to 0.017 nM, read-out: BTK binding IC50
T1 construct: recombinant protein from baculovirus-transfected S 19 cells: full-length BTK, 6 HIS-tag cleaved; 6 HIS-tag (cleaved yes); made in house
T1 sequence (Q06187 whole entry): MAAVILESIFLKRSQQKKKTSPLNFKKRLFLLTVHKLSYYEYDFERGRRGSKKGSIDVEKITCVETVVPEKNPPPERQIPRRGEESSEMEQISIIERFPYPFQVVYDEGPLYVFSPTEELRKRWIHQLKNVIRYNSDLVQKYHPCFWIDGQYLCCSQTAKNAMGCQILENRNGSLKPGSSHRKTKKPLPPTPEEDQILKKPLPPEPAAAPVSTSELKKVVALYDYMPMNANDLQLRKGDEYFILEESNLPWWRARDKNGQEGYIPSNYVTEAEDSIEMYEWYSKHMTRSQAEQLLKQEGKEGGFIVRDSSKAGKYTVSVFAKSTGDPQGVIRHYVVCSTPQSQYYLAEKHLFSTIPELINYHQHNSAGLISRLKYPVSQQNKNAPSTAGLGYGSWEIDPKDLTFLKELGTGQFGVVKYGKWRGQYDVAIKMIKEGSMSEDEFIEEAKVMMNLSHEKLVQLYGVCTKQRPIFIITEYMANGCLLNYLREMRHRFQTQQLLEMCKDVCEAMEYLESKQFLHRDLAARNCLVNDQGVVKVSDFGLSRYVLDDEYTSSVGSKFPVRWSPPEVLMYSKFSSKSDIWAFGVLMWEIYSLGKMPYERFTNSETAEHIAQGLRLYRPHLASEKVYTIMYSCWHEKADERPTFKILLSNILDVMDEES

For `COc1cc(C(=O)Nc2cc(C(F)(F)F)ccn2)ccc1-c1nc([C@H]2CN(C(=O)C(C)C)[C@@H](C)CO2)n2c(Cl)cnc(N)c12` [Example 15, 4-{8-amino-5-chloro-3-[(2R,5S)-5-methyl-4-(2-methylpropanoyl)morpholin-2-yl]imidazo[1,5-a]pyrazin-1-yl}-3-methoxy-N-[4-(trifluoromethyl)pyridin-2-yl]benzamide], the IC50 [1] was 3260 nM and the IC50 [2] was 4.14 nM.
In the case of `CCC(=O)N1C[C@H](c2nc(-c3ccc(C(=O)Nc4cc(C(F)(F)F)ccn4)cc3OC)c3c(N)ncc(Cl)n23)OC[C@@H]1C` [Example 16, 4-{8-amino-5-chloro-3-[(2R,5S)-5-methyl-4-propanoylmorpholin-2-yl]imidazo[1,5-a]pyrazin-1-yl}-3-methoxy-N-[4-(trifluoromethyl)pyridin-2-yl]benzamide], the IC50 [1] is reported as 2790 nM and the IC50 [2] is reported as 1.25 nM.
In the case of `COc1cc(C(=O)Nc2cc(C(F)(F)F)ccn2)ccc1-c1nc([C@H]2CN(C(C)=O)[C@@H](C)CO2)n2c(Cl)cnc(N)c12` [Example 17, 4-{3-[(2R,5S)-4-acetyl-5-methylmorpholin-2-yl]-8-amino-5-chloroimidazo[1,5-a]pyrazin-1-yl}-3-methoxy-N-[4-(trifluoromethyl)pyridin-2-yl]benzamide], the IC50 [1] is reported as 1620 nM and the IC50 [2] is reported as 2.27 nM.
With `COc1cc(C(=O)Nc2cc(C(F)(F)F)ccn2)ccc1-c1nc([C@H]2CN(C(=O)C3(C)CC3)[C@@H](C)CO2)n2c(Cl)cnc(N)c12` [Example 18, 4-(8-amino-5-chloro-3-{(2R,5S)-5-methyl-4-[(1-methylcyclopropyl)carbonyl]morpholin-2-yl}imidazo[1,5-a]pyrazin-1-yl)-3-methoxy-N-[4-(trifluoromethyl)pyridin-2-yl]benzamide] the IC50 [1] was 3230 nM and the IC50 [2] was 2.8 nM.
For `CCOc1cc(C(=O)Nc2cc(C(F)(F)F)ccn2)ccc1-c1nc([C@H]2CN(C(=O)CC)[C@@H](C)CO2)n2c(Cl)cnc(N)c12` [Example 19, 4-{8-amino-5-chloro-3-[(2R,5S)-5-methyl-4-propanoylmorpholin-2-yl]imidazo[1,5-a]pyrazin-1-yl}-3-ethoxy-N-[4-(trifluoromethyl)pyridin-2-yl]benzamide], the IC50 [1] was at least 10000 nM and the IC50 [2] was 1.23 nM.
For `CCOc1cc(C(=O)Nc2cc(C(F)(F)F)ccn2)ccc1-c1nc([C@H]2CN(C(C)=O)[C@@H](C)CO2)n2c(Cl)cnc(N)c12` [Example 20, 4-{3-[(2R,5S)-4-acetyl-5-methylmorpholin-2-yl]-8-amino-5-chloroimidazo[1,5-a]pyrazin-1-yl}-3-ethoxy-N-[4-(trifluoromethyl)pyridin-2-yl]benzamide], the IC50 [1] was 3910 nM and the IC50 [2] was 1.36 nM.
For `CCOc1cc(C(=O)Nc2cc(C(F)(F)F)ccn2)ccc1-c1nc([C@H]2CN(C(=O)[C@H](C)OC)[C@@H](C)CO2)n2c(Cl)cnc(N)c12` [Example 21, 4-(8-amino-5-chloro-3-{(2R,5S)-4-[(2S)-2-methoxypropanoyl]-5-methylmorpholin-2-yl}imidazo[1,5-a]pyrazin-1-yl)-3-ethoxy-N-[4-(trifluoromethyl)pyridin-2-yl]benzamide], the IC50 [1] was 7270 nM and the IC50 [2] was 1.43 nM.
With `CCOc1cc(C(=O)Nc2cc(C(F)(F)F)ccn2)ccc1-c1nc([C@H]2CN(C(=O)[C@H](C)O)[C@@H](C)CO2)n2c(Cl)cnc(N)c12` [Example 22, 4-(8-amino-5-chloro-3-{(2R,5S)-4-[(2S)-2-hydroxypropanoyl]-5-methylmorpholin-2-yl}imidazo[1,5-a]pyrazin-1-yl)-3-ethoxy-N-[4-(trifluoromethyl)pyridin-2-yl]benzamide] the IC50 [1] was 4530 nM and the IC50 [2] was 1.21 nM.
`CCOc1cc(C(=O)Nc2cc(C(F)(F)F)ccn2)ccc1-c1nc([C@H]2CN(Cc3cnn(C)c3)[C@@H](C)CO2)n2c(Cl)cnc(N)c12` [Example 23, 4-(8-amino-5-chloro-3-{(2R,5S)-5-methyl-4-[(1-methyl-1H-pyrazol-4-yl)methyl]morpholin-2-yl}imidazo[1,5-a]pyrazin-1-yl)-3-ethoxy-N-[4-(trifluoromethyl)pyridin-2-yl]benzamide] showed an IC50 [1] of 1200 nM and an IC50 [2] of 3.02 nM.
With `CCOc1cc(C(=O)Nc2cc(C(F)(F)F)ccn2)ccc1-c1nc([C@H]2CN(CC)[C@@H](C)CO2)n2c(Cl)cnc(N)c12` [Example 24, 4-{8-amino-5-chloro-3-[(2R,5S)-4-ethyl-5-methylmorpholin-2-yl]imidazo[1,5-a]pyrazin-1-yl}-3-ethoxy-N-[4-(trifluoromethyl)pyridin-2-yl]benzamide] the IC50 [1] was 2350 nM and the IC50 [2] was 1.54 nM.
`COc1cc(C(=O)Nc2cc(C(F)(F)F)ccn2)ccc1-c1nc([C@H]2CN(Cc3cnn(C)c3)[C@@H](C)CO2)n2c(Cl)cnc(N)c12` [Example 25, 4-(8-amino-5-chloro-3-{(2R,5S)-5-methyl-4-[(1-methyl-1H-pyrazol-4-yl)methyl]morpholin-2-yl}imidazo[1,5-a]pyrazin-1-yl)-3-methoxy-N-[4-(trifluoromethyl)pyridin-2-yl]benzamide] showed an IC50 [1] of 930 nM and an IC50 [2] of 1.94 nM.
In the case of `CCN1C[C@H](c2nc(-c3ccc(C(=O)Nc4cc(C(F)(F)F)ccn4)cc3OC)c3c(N)ncc(Cl)n23)OC[C@@H]1C` [Example 26, 4-{8-amino-5-chloro-3-[(2R,5S)-4-ethyl-5-methylmorpholin-2-yl]imidazo[1,5-a]pyrazin-1-yl}-3-methoxy-N-[4-(trifluoromethyl)pyridin-2-yl]benzamide], the IC50 [1] is reported as 1020 nM and the IC50 [2] is reported as 3.62 nM.
For `CCOc1cc(C(=O)Nc2cc(C(F)(F)F)ccn2)ccc1-c1nc([C@H]2CN(C3CCOCC3)[C@@H](C)CO2)n2c(Cl)cnc(N)c12` [Example 27, 4-{8-amino-5-chloro-3-[(2R,5S)-5-methyl-4-(tetrahydro-2H-pyran-4-yl)morpholin-2-yl]imidazo[1,5-a]pyrazin-1-yl}-3-ethoxy-N-[4-(trifluoromethyl)pyridin-2-yl]benzamide], the IC50 [1] was 1880 nM and the IC50 [2] was 2.22 nM.
For `COCCC(=O)N1CC(N2C[C@H](c3nc(-c4ccc(C(=O)Nc5cc(C(F)(F)F)ccn5)cc4OC)c4c(N)nccn34)OC[C@@H]2C)C1` [Example 28, 4-(8-amino-3-{(2R,5S)-4-[1-(3-methoxypropanoyl)azetidin-3-yl]-5-methylmorpholin-2-yl}imidazo[1,5-a]pyrazin-1-yl)-3-methoxy-N-[4-(trifluoromethyl)pyridin-2-yl]benzamide], the IC50 [1] was at least 10000 nM and the IC50 [2] was 7.61 nM.
For `COc1cc(C(=O)Nc2cc(C(F)(F)F)ccn2)ccc1-c1nc([C@H]2CN(C3CN(C(=O)C4CC4)C3)[C@@H](C)CO2)n2ccnc(N)c12` [Example 29, 4-(8-amino-3-{(2R,5S)-4-[1-(cyclopropylcarbonyl)azetidin-3-yl]-5-methylmorpholin-2-yl}imidazo[1,5-a]pyrazin-1-yl)-3-methoxy-N-[4-(trifluoromethyl)pyridin-2-yl]benzamide], the IC50 [1] was 3860 nM and the IC50 [2] was 3.45 nM.
With `COc1cc(C(=O)Nc2cc(C(F)(F)F)ccn2)ccc1-c1nc([C@H]2CN(C3CN(Cc4c(F)cccc4F)C3)[C@@H](C)CO2)n2ccnc(N)c12` [Example 30, 4-(8-amino-3-{(2R,5S)-4-[1-(2,6-difluorobenzyl)azetidin-3-yl]-5-methylmorpholin-2-yl}imidazo[1,5-a]pyrazin-1-yl)-3-methoxy-N-[4-(trifluoromethyl)pyridin-2-yl]benzamide] the IC50 [1] was 1040 nM and the IC50 [2] was 10.7 nM.
Molecule `COc1cc(C(=O)Nc2cc(C(F)(F)F)ccn2)ccc1-c1nc([C@H]2CN(C3CN(Cc4ccc(F)cc4)C3)[C@@H](C)CO2)n2ccnc(N)c12` [Example 31, 4-(8-amino-3-{(2R,5S)-4-[1-(4-fluorobenzyl)azetidin-3-yl]-5-methylmorpholin-2-yl}imidazo[1,5-a]pyrazin-1-yl)-3-methoxy-N-[4-(trifluoromethyl)pyridin-2-yl]benzamide] has an IC50 [1] of 1040 nM and an IC50 [2] of 4.49 nM.
With `COc1cc(C(=O)Nc2cc(C(F)(F)F)ccn2)ccc1-c1nc([C@H]2CN(C3CN(Cc4ccccc4F)C3)[C@@H](C)CO2)n2ccnc(N)c12` [Example 32, 4-(8-amino-3-{(2R,5S)-4-[1-(2-fluorobenzyl)azetidin-3-yl]-5-methylmorpholin-2-yl}imidazo[1,5-a]pyrazin-1-yl)-3-methoxy-N-[4-(trifluoromethyl)pyridin-2-yl]benzamide] the IC50 [1] was 1070 nM and the IC50 [2] was 6.41 nM.
Molecule `COCCC(=O)N1CC(C(=O)N2C[C@H](c3nc(-c4ccc(C(=O)Nc5cc(C(F)(F)F)ccn5)cc4OC)c4c(N)nccn34)OC[C@@H]2C)C1` [Example 33, 4-{8-amino-3-[(2R,5S)-4-{[1-(3-methoxypropanoyl)azetidin-3-yl]carbonyl}-5-methylmorpholin-2-yl]imidazo[1,5-a]pyrazin-1-yl}-3-methoxy-N-[4-(trifluoromethyl)pyridin-2-yl]benzamide] has an IC50 [1] of at least 10000 nM and an IC50 [2] of 2.05 nM.

From patent US20170349593A1, “BTK INHIBITORS” (MERCK SHARP & DOHME CORP., priority 2014, published 2017)
